The results in this text go back to patent publication US20240408222A1, “COMPOUNDS, PHARMACEUTICAL COMPOSITIONS, AND METHODS FOR THE TREATMENT, PREVENTION, OR MANAGEMENT OF HYPERPRO[…]” (VINCERX PHARMA GMBH, priority 2021, published 2024).

What is called AC50 is the midpoint of the concentration-response curve, whichever way the signal moves. The low end stands for greater potency, the high end for weaker potency. A word on the IC50: it is the concentration at which inhibition is half-maximal. Lower therefore signals inhibition by little substance.

The conditions of data set [1]: buffer pH 7.4, 37° C. As for the experimental part: Method for measurement of stability in buffer: 0.15 mg of the test compound was dissolved in 0.1 ml dimethylsulfoxide and 0.4 ml acetonitrile. For complete dissolution, the HPLC vial with the sample solution was shaken and sonicated. Then 1.0 ml of the respective buffer solution was added, and the sample was vortexed. The sample solution was analysed by HPLC to determine the amount of the test compound and up to two byproducts at a particular time over a period of 24 h at 37° C. […] The peak areas (in percentage) were used for quantification.

Data set [2] has as its system SUM149. Description: Cytotoxicity assay (Version 2, automated, AC50) with/without neutrophil elastase. Format: cell-based. The settings on record: Version 2, activity concentration at −50%. The method, boiled down: (§1)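 An automated MTT read-out (570 nm, 4 h reagent) followed 72 h at 37 °C with compound from 10^−5 to 10^−13 M, in triplicate, tested with and without 10 nM elastase. AC50, the concentration giving −50% metabolic activity, came from a 4-parameter Hill fit. Scaling ran from medium-only wells (−100%) to DMSO controls (0%).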

Data set [3] relates to 786-O. The data set is described as above. Format: cell-based, human. The settings on record: Version 2, activity concentration at −50%. Summed up: as §1
Data set [4] relates to NCI H292. The data set is described as above. Format: cell-based, human. The settings on record: NCI H292, with (+) neutrophil elastase, Version 2, activity concentration at −50%. Summed up: as §1
Data set [5] deals with HT29. The data set is described as above. The class given is cell-based, human. The settings on record: Version 2, activity concentration at −50%. Summed up: as §1
Data set [6] has as its system 786-O. Description: Cytotoxicity in vitro (MTT) in presence/absence of elastase. Format: cell-based, human. The conditions noted are these: 72 h. The method, boiled down: (§2)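 Cells seeded 24 h, then treated in triplicate with compound (10^−5 to 10^−13 M) alone or with 10 nM elastase for 72 h at 37° C. Proliferation by MTT (4 h, overnight detergent lysis, 570 nm), relative to untreated cells as 100%.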

Data set [7] concerns NCI H292. The description is as above. The class given is cell-based, human. The settings on record: 72 h. The method, boiled down:
as §2

In data set [8] the test system is HT29. Described as above. Format: cell-based, human. The conditions noted are these: 72 h. Summed up:
as §2

Data set [9] deals with SUM149. Described as above. The class given is cell-based. The settings on record: 72 h. The method, boiled down:
as §2

For data set [10] the following is noted: 37° C. As for the experimental part: Method for measurement of stability in rat and human plasma: 1 mg of the test compound was dissolved in 0.5 ml acetonitrile/dimethylsulfoxide 1:1. For complete dissolution the HPLC vial was shaken and sonicated. While vortexing, 20 μl of this solution was added to 1 ml 37° C. warm plasma. After 10 min, 0.5 h, 1 h, 1.5 h, 2 h, and 4 h, the assay was stopped by adding 100 μl of the compound plasma solution to a vial containing 300 μl acetonitrile/buffer pH 3 (80:20) at RT. The mixture was centrifuged at 5000 rpm for 10 minutes. The supernatant was analyzed by HPLC to determine the amount of the test compound and up to two byproducts. To values resulted from a processed sample immediately taken after vortexing with plasma at RT. The peak areas (in percentage) were used for quantification. All data was given as percent area of the initial compound at to. The results of these assays are shown in FIG. 1 and FIG. 2 for rat and human plasma, respectively.

[11] abbreviates: SUM149, without (−) neutrophil elastase.
[12] abbreviates: without (−) neutrophil elastase.
Where [13] appears, read: HT29, without (−) neutrophil elastase.

Like-named read-outs stand apart in the source and are kept apart here.

In the case of `CCCNC(=O)Nc1cccc(S(=O)(=O)Nc2cccc([C@@H](CC(=O)[O-])NC(=O)Nc3ccc(NC(=O)NCCOCCOCCOCCC(=O)N[C@@H](CC(=O)[O-])C(=O)N4CCC[C@H]4C(=O)N[C@H](C(=O)N=[S@@](C)(=O)Cc4cc5cc(c4)OCCCCOc4cc(F)ccc4-c4nc(ncc4F)N5)C(C)C)cc3)c2)c1.[Na+].[Na+]` [Compound 3], in data set [1], the “time stable in buffer (no significant degradation)” value is reported as “at least 24 h”. The AC50 was 11 to 100 nM in the data set with SUM149 [2] (SUM149, with (+) neutrophil elastase); 100 to 1000 nM in the data set with SUM149 [2] (setting [11]); 11 to 100 nM in the data set with 786-O [3] (with (+) neutrophil elastase); over 1000 nM in the data set on 786-O [3] (setting [12]); 11 to 100 nM in the data set on NCI H292 [4]; 11 to 100 nM with HT29 [5] (HT29, with (+) neutrophil elastase). The molecule also came in with an AC50 with HT29 [5] (setting [13]) of over 1000 nM. Moreover, the IC50 with 786-O [6] (with (+) 10 nM neutrophil elastase) is at most 1 nM; with 786-O [6] (setting [12]) it was over 100 nM; with NCI H292 [7] (NCI H292, with (+) 10 nM neutrophil elastase) it was at most 1 nM; in the data set with NCI H292 [7] (NCI H292, without (−) neutrophil elastase), over 100 nM; in the data set on HT29 [8] (HT29, with (+) 10 nM neutrophil elastase) it was at most 1 nM; with HT29 [8] (setting [13]), over 100 nM. Further, the IC50 is at most 1 nM in the data set with SUM149 [9] (SUM149, with (+) 10 nM neutrophil elastase) and over 100 nM with SUM149 [9] (setting [11]). For the same molecule, the “time stable in plasma (no significant degradation)” value in data set [10] (human plasma) and in data set [10] (rat plasma) was “at least 4 h” throughout.
